# Results: patent US6596545B1, “Microdevices for screening biomolecules” (priority 1998, dated 2003)
# Assays:
# Type in all cases: biochemical
# [1] = system: HIV variants (HIV protease variants, HIV-GST-K6); assay: FRET protease activity assay in microchannels, immobilized HIV protease variants; settings: all immobilized variants other than G48V or L90M; substrate Dns-SQNYPIVW 20 μM, pH 5.5
# Experimental: HIV protease variants, in the form of HIV-GST-K6, and GST-K6 are immobilized to the aminoreactive monolayer surface of the microchannel device (see Example 4, above). HIV-GST-K6 and GST-K6 are diluted to concentrations of 1 μg/ml in 25 mM HEPES buffer (pH 7.5) containing 150 mM NaCl. First, 50 μl of protein-free buffer is transferred through the channels to hydrate the monolayer surface. After 5 min of incubation, 10 μl of the corresponding protein solutions are flushed through the channels to guarantee total replacement with protein-containing solution. Immobilization is finished after 30 min at room temperature. The channels are rinsed with 50 μl immobilization buffer and subjected to analysis. […]
# HIV protease requires at least a heptapeptide substrate (Moore et al., Biochem. Biophys. Res. Commun., 1989, 159:420). To analyze the activity of the different HIV variants, a continuous assay based on intra-molecular fluorescence resonance energy transfer (FRET) is used. […] The modified heptapeptide; Dns-SQNYPIVW is prepared as described (Geoghegan et al.) and analyzed by amino acid analysis, nuclear magnetic resonance and mass spectrometry. […] Addition of the substrate to the immobilized proteins leads to time-dependent intensity changes in the fluorescence emission spectrum. […] To control for changes in background fluorescence, GST-K6 fusion protein is measured in parallel. […]
# [2] = biological target: HIV protease L63P variant (Human immunodeficiency virus type 1 group M subtype B, UniProt P04585, L551P); settings: substrate Dns-SQNYPIVW, pH 5.5
# Experimental: (§1) HIV protease variants, in the form of HIV-GST-K6, and GST-K6 are immobilized to the aminoreactive monolayer surface of the microchannel device (see Example 4, above). HIV-GST-K6 and GST-K6 are diluted to concentrations of 1 μg/ml in 25 mM HEPES buffer (pH 7.5) containing 150 mM NaCl. First, 50 μl of protein-free buffer is transferred through the channels to hydrate the monolayer surface. After 5 min of incubation, 10 μl of the corresponding protein solutions are flushed through the channels to guarantee total replacement with protein-containing solution. Immobilization is finished after 30 min at room temperature. The channels are rinsed with 50 μl immobilization buffer and subjected to analysis. […] Ultrapure water with a resistance of 18 MΩcm is generally used for all aqueous buffers (purified by passage through a Barnstead Nanopure® system).
# (§2) HIV protease requires at least a heptapeptide substrate (Moore et al., Biochem. Biophys. Res. Commun., 1989, 159:420). To analyze the activity of the different HIV variants, a continuous assay based on intra-molecular fluorescence resonance energy transfer (FRET) is used. […] Excitation of Trp is at […], and emission of Dns is at 575 nm. Cleavage of the peptide at the Tyr-Pro bond reduces the Dns emission and increases Trp emission at 360 nm. The modified heptapeptide; Dns-[…] is prepared as described (Geoghegan et al.) and analyzed by amino acid analysis, nuclear magnetic resonance and mass spectrometry. The purity is checked by HPLC analysis using a Vydac C-4 column and an acetonitrile gradient in 0.1% TFA. In order to test the activity of all the HIV variants described above, each microchannel with an immobilized HIV variant (see Example 6) is filled with 20 μM of Dns-[…] in 50 mM sodium acetate, pH 5.5, 13% glycerol, 10 mM DTT. Addition of the substrate to the immobilized proteins leads to time-dependent intensity changes in the fluorescence emission spectrum. […] To control for changes in background fluorescence, GST-K6 fusion protein is measured in parallel.
# (§3) Competition assays can be carried out to test the specificity of the proteolysis by the HIV variants.
# [3] = biological target: HIV protease M461 variant (Human immunodeficiency virus type 1 group M subtype B, UniProt P04585, M534I); settings: substrate Dns-SQNYPIVW, pH 5.5
# Experimental: as §1, §2, §3
# [4] = biological target: HIV protease 184V variant (Human immunodeficiency virus type 1 group M subtype B, UniProt P04585, I572V/P588I); settings: substrate Dns-SQNYPIVW, pH 5.5
# Experimental: as §1, §2, §3
# [5] = biological target: HIV protease A71V variant (Human immunodeficiency virus type 1 group M subtype B, UniProt P04585, A559V/P588I); settings: substrate Dns-SQNYPIVW, pH 5.5
# Experimental: as §1, §2, §3
# [6] = biological target: HIV protease V82F variant (Human immunodeficiency virus type 1 group M subtype B, UniProt P04585, V570F); settings: substrate Dns-SQNYPIVW, pH 5.5
# Experimental: as §1, §2, §3
# [7] = biological target: L10R HIV protease variant (Human immunodeficiency virus type 1 group M subtype B, UniProt P04585, L498R); settings: substrate Dns-SQNYPIVW, pH 5.5
# Experimental: as §1, §2, §3
SMILES,inhibition of HIV variants [1],block of protease activity [2],block of protease activity [3],block of protease activity [4],block of protease activity [5],block of protease activity [6],decrease of protease activity [7]
CC(C)(C)NC(=O)[C@@H]1C[C@@H]2CCCC[C@@H]2CN1C[C@@H](O)[C@H](Cc1ccccc1)NC(=O)[C@H](CC(N)=O)NC(=O)c1ccc2ccccc2n1 [Sequinavir],will inhibit all the HIV variants except those containing either the G48V or the L90M mutation,–,–,–,–,–,–
CC(C)c1nc(CN(C)C(=O)N[C@H](C(=O)N[C@@H](Cc2ccccc2)C[C@H](O)[C@H](Cc2ccccc2)NC(=O)OCc2cncs2)C(C)C)cs1 [Ritonavir],–,unable to block the activity,unable to block the activity,unable to block the activity,unable to block the activity,unable to block the activity,–
CC(C)(C)NC(=O)[C@@H]1CN(Cc2cccnc2)CCN1C[C@@H](O)C[C@@H](Cc1ccccc1)C(=O)N[C@H]1c2ccccc2C[C@H]1O [Indinavir],–,–,–,–,the A71V variant is not affected,–,not able to decrease the activity
